Data on two molecules can be found in patent US20250051403A1, “ANTIMICROBIAL PEPTIDES, VARIANTS AND CHEMICAL ANALOGUES THEREOF AND THEIR USES” (priority 2021, published 2025).

Test [1] concerns S. aureus methicillin resistant USA300 (ATCC BAA-1717). Kind of test: MIC, broth microdilution. In kind it is cell-based, Staphylococcus aureus. Background: In broth dilution the organism is exposed to a series of concentrations in liquid medium.
Test [2] deals with Pseudomonas aeruginosa (ATCC 9027). Kind of test: MIC, broth microdilution. In kind it is cell-based. Particulars: Table IV.
Test [3] has as its system A. baumannii antibiotic resistant (CIP 110431). Particulars: Table IV.
Another test relates to Serratia marcescens. Kind of test: MIC, broth microdilution. Particulars: Table IV. In kind it is cell-based.
For test [4], the system named is Enterococcus faecalis Vancomycin-resistant (DSMZ 13591). Kind of test: MIC, broth microdilution. In kind it is cell-based. Particulars: Table IV.
In test [5] the test system is Helicobacter pylori (ATCC 43504). The test is described as follows: MIC, broth microdilution. In kind it is cell-based. Particulars: Table IV.
Test [6] deals with V. alginolyticus (MPV19 IFREMER). Kind of test: MIC, broth microdilution. The test is classed as cell-based, Vibrio alginolyticus.
A further test concerns E. coli (D31 Pasteur). Kind of test: MIC, broth microdilution. In kind it is cell-based, Escherichia coli. Particulars: Table IV. As for the experimental part: (§1) To standardize the bacterial cell suspension for assay of antibacterial activity, some colonies of each strain grown overnight on MHA (Mueller Hinton Agar. ROTH) plates were suspended in MHB (Mueller Hinton Broth. ROTH) or MHB saline (Mueller Hinton Broth containing 565 mM NaCl) and incubated at 37° C. or 30° C. until visible turbid. This log-phase inoculum was diluted 1:100 in the same culture media. Using sterile 96-well microtiter plates (CELLSTAR. Greiner bio-one), serial 2-fold dilutions (40 to 0.78 μM) of each peptide were prepared in cation-adjusted acetic acid 0.02% with 0.4% BSA (Bovin Serum Albumin fraction V. Boehringer) at a volume of 10 μL/well. Each well was inoculated with 100 μL of the standardized bacterial inoculum, corresponding to a final test concentration of about 10^5 CFU/mL. Antimicrobial activities were expressed as the MIC (Minimal Inhibitory Concentration), the lowest concentration of peptide at which 100% inhibition of microbial growth was observed after 24 h of incubation at 37° C. or 30° C. by measuring OD600 in a microtiter plate reader. The minimal bactericidal concentration (MBC) was defined as the peptide concentration where no colony growth was observed.
(§2) The same experiments as described in 1) were performed. For the evaluation of antimicrobial activity against some other strains, a resazurin microtiter assay was used as explained hereinafter.

The test system of the next test is Pseudomonas sp. The test is described as follows: MIC, broth microdilution. Particulars: Table III; MHB saline 565 mM NaCl. The test is classed as cell-based. The method, then:
as §1

For test [7], the system named is Mycobacterium tuberculosis mc^26230.
A further test concerns V. alginolyticus. The test is described as follows: Scanning electron microscopy of treated bacteria. The test is classed as cell-based, Vibrio alginolyticus. Particulars: FIG. 9. The source says: (§3) The arrows show pore formed through the membrane. For V. diabolicus, despite the results of FIG. 3, is seems that Michelicin has a pore-forming activity on these bacteria.
For test [8], the system named is Staphylococcus aureus (ATCC 6538P). The test is described as follows: MIC, broth microdilution. The test is classed as cell-based. Particulars: Table IV.
Test [9] deals with Escherichia coli (ATCC 8739). Kind of test: MIC, broth microdilution. Particulars: Table IV. In kind it is cell-based.
For test [10], the system named is P. aeruginosa Fluoroquinolone resistant (CIP 107398). Kind of test: MIC, broth microdilution. The test is classed as cell-based, Pseudomonas aeruginosa.
The test system of test [11] is Klebsiella pneumoniae carbapenem-resistant (DSMZ 26371). The test is described as follows: MIC, broth microdilution. In kind it is cell-based. The settings on record: Table IV.
The subject of test [12] is E. coli carbapenem- resistant (DSMZ 22314). Particulars: Table IV.
A further test has as its system M. bovis BCG Pasteur. Particulars: Table IV; REMA, 90% growth inhibition.
For another test, the system named is S. aureus (Pasteur). Kind of test: MIC, broth microdilution. In kind it is cell-based, Staphylococcus aureus. The settings on record: Table IV.
Test [13] relates to Bacillus subtilis (ATCC 6633). The test is described as follows: MIC, broth microdilution. In kind it is cell-based. Particulars: Table IV. The method, then: as §1, §2
The test system of test [14] is Salmonella enterica (CIP 80.39). Kind of test: MIC, broth microdilution. In kind it is cell-based. As for the experimental part:
as §1, §2

Test [15] relates to B. subtilis nisin resistant (DSMZ 347).
Test [16] concerns Acinetobacter baumannii (CIP 103572). The test is described as follows: MIC, broth microdilution. The test is classed as cell-based. Particulars: Table IV.
The next test has as its system Pseudomonas sp biofilm. The test is described as follows: Biofilm formation assay (crystal violet). In kind it is cell-based. Particulars: 20 μM peptide, 2 h at 37° C. on 48 h biofilm; untreated culture 0.95. As for the experimental part: Overnight cultures of V. diabolicus and Pseudomonas sp (37° C., 200 rpm) were diluted to an OD600 of 0.1 in MHB medium and 200 μL aliquots of the suspensions were introduced into the wells of a 96 microtiter plates (Nunc). Plates were then incubated at 37° C. without shaking for 48 h. After removal of the standing culture, the wells were washed with MHB medium and Michelicin, Arenicin and Alvinellacin were added, respectively, at a final concentration of 20 μM in MHB. The treatment was performed during 2 h at 37° C. Wells were then washed three times with distilled water and the remaining attached bacteria were fixed with 99% methanol per well for 20 min at room temperature. Afterward, methanol was removed and plates were air-dried. Biofilms were stained with 300 μL of 1% crystal violet (v/v) for 20 min at room temperature, before the residual stain was removed. After washing, the crystal violet bound to the adherent cells was solubilized with 300 μL of 100% ethanol and absorbance was measured at 595 nm (TECAN, sunrise). Sterile medium served as negative control. It is clear on the view of FIG. 3 that Michelicin has a greater antimicrobial activity on a biofilm of Pseudomonoas sp strains than Alvinellacin. For Pseudomonas sp, OD595 is equal to 0.6 when treated with Michelicin, equal to 0.55 when treated with Arenicin and equal to 0.65 when treated with Alvinellacin. […]

Test [17] relates to Burkholderia cepacia (DSM 7288). The test is described as follows: MIC, broth microdilution. In kind it is cell-based. The settings on record: Table IV.
Test [18] has as its system M. abscessus R (CIP104537^TR). The settings on record: Table IV; REMA, 90% growth inhibition.
The test system of a further test is V. diabolicus. Kind of test: Scanning electron microscopy of treated bacteria. In kind it is cell-based, Vibrio diabolicus. The settings on record: FIG. 9.
Description: as §3

Test [19] has as its system Helicobacter pylori 21031. In kind it is cell-based. As for the experimental part: (§4) Biological (antimicrobial) activity of Michelicin (which comprises two disulfide bridges formed between four cysteines) synthetized with (A) or without (B) a stepwise formation of the desired disulfide pattern, was also determined. An analogue of Michelicin which has the same sequence as Michelicin except for the cysteine residues that are replaced by a neutral analogue of cysteine (i.e. Michelicin-OH 2343 (Abu-3-6-11-15)) was synthesized. Abu means 2-aminobutanoic group. This analogue is devoid of disulfide bridges. This analogue of Michelicin is called Michelicin no SS in Table VI.

In a further test the test system is Acinetobacter baumannii. The test is classed as cell-based. As for the experimental part:
as §4

Another test concerns Staphylococcus aureus. In kind it is cell-based. As for the experimental part:
as §4

In test [20] the test system is Clostridium perfringens (ATCC 13124). The settings on record: Table VI.

In general, MIC refers to the lowest concentration that inhibits growth of the organism.

Values after ≈ are worked out from the molar mass of the structure shown. Where two headings read alike, the source gives them in different places. Positions of bridges follow the written chain, without caps; N, C: chain ends. Non-standard residues stand in square brackets, D forms with d. Residues, ends and D or L forms follow the SMILES beside them. Abu = CC[C@H](N)C(=O)O

Turning to `CSCC[C@@H]1NC(=O)[C@@H]2CSSC[C@H](NC(=O)[C@H](CCCNC(=N)N)NC(=O)[C@H]([C@@H](C)O)NC(=O)[C@H](Cc3ccc(O)cc3)NC(=O)[C@@H](NC(=O)CNC(=O)[C@@H](N)CCCNC(=N)N)CSSC[C@@H](C(=O)N[C@H](C(=O)O)[C@@H](C)O)NC(=O)[C@H](C(C)C)NC(=O)[C@H](CCCNC(=N)N)NC1=O)C(=O)N[C@@H](Cc1c[nH]c3ccccc13)C(=O)N[C@@H](CCCCN)C(=O)N[C@@H](C(C)C)C(=O)NCC(=O)N[C@@H](CCCNC(=N)N)C(=O)N[C@@H](CC(N)=O)C(=O)NCC(=O)N[C@@H](CCCNC(=N)N)C(=O)N[C@@H](C(C)C)C(=O)N2` [Alvinellacin] (H-RGCYTRCWKVGRNGRVCMRVCT-OH; disulfide 3-21, 7-17; N-terminus and C-terminus assumed), the MIC with Bacillus megaterium was 0.15 to 0.31 µM; in [1] (Table IV), 2.5 to 5 µM; in test [2], 1.25 to 2.5 µM; in [3], 0.625 to 1.25 µM; against Serratia marcescens, above 50 µM; in test [4], 20 to 40 µM. Moreover, the MIC in test [5] lay within 1.25 to 2.5 µM; in test [6] (Table III, MHB) it was 0.07 to 0.15 µM; in [6] (Table IV), 0.07 to 0.15 µM; with E. coli (D31 Pasteur) it was 0.31 to 0.62 µM; against V. diabolicus (HE 800), 2.5 to 5 µM; against Vibrio alginolyticus, 0.07 to 0.15 µM. Moreover, the MIC against Vibrio alginolyticus (24 h) fell in the range of 0.07 to 0.15 µM; in test [7], 16.0 to 21.5 µM; in test [8], 2.5 to 5 µM; in [9], 1.25 to 2.5 µM; in test [10] (Table IV), 1.25 to 2.5 µM; in test [11], 1.25 to 2.5 µM. Besides, the MIC lay within 0.625 to 1.25 µM in test [12]; 12.0 to 21.4 µM in the test on M. bovis BCG Pasteur; 1.25 to 2.5 µM against S. aureus (Pasteur); 0.625 to 1.25 µM in test [13]; 0.625 to 1.25 µM in [14] (Table IV); 0.625 to 1.25 µM in test [15] (Table IV). Further, the MIC in test [16] was 1.25 to 2.5 µM; in test [17] it was 10 µM (≈ 26 µg/mL); in test [18], 17.0 to 17.8 µM. The “MIC with 565 mM NaCl” value against Bacillus megaterium lay within 2.5 to 5 µM; in [6] (Table III, MHB saline 565 mM NaCl), 0.62 to 1.25 µM; with Pseudomonas sp. it was 5 to 10 µM; with V. diabolicus (HE 800), 2.5 to 5 µM; with Vibrio alginolyticus, 0.07 to 0.15 µM. For the same molecule, the “Membrane damage seen by scanning electron microscopy” value in the test on V. alginolyticus and with V. diabolicus was “able to damage” throughout. Besides, the “Biofilm OD595 after treatment” value in the test on Pseudomonas sp biofilm stood at 0.65.
As for `CC[C@H](NC(=O)[C@H](CCCNC(=N)N)NC(=O)CNC(=O)[C@H](CC(N)=O)NC(=O)[C@H](CCCNC(=N)N)NC(=O)[C@H](CC)NC(=O)[C@@H](NC(=O)[C@H](CCCNC(=N)N)NC(=O)[C@@H](NC(=O)[C@H](CC)NC(=O)[C@@H](NC(=O)[C@@H](N)CCCNC(=N)N)C(C)C)C(C)C)[C@@H](C)CC)C(=O)N[C@@H](Cc1ccc(O)cc1)C(=O)N[C@@H](CCCNC(=N)N)C(=O)N[C@@H](CCCNC(=N)N)C(=O)N[C@@H](CC)C(=O)N[C@@H](Cc1c[nH]c2ccccc12)C(=O)N[C@@H](CC(N)=O)C(=O)N[C@H](C(=O)O)[C@@H](C)O` [Michelicin no SS, Michelicin-OH 2343 (Abu-3-6-11-15)] (H-RV[Abu]VRI[Abu]RNGR[Abu]YRR[Abu]WNT-OH; N-terminus assumed), the MIC in test [1] (USA300) was above 80 µM; against M. smegmatis mc^2155 it was 20 µM (≈ 46.9 µg/mL); in test [19], 40 µM (≈ 93.7 µg/mL); against Acinetobacter baumannii it was 2.5 µM (≈ 5.86 µg/mL); against Staphylococcus aureus, 80 µM (≈ 187 µg/mL); in [20] it was above 80 µM. In addition, the MIC in the test with V. diabolicus (HE 800) is above 80 µM; with Vibrio alginolyticus, 0.625 µM (≈ 1.46 µg/mL); in test [10] (CIP 107398), above 80 µM; in test [14] (Table VI, Salmonella enterica) it was 80 µM (≈ 187 µg/mL); in test [15] (Table VI, Bacillus subtilis Nisin resistant), 5 µM (≈ 11.7 µg/mL).
